Structures are written as SMILES.

In series [1] the test system is rat peritoneal mast cells. The series can be described thus: In vitro histamine induction in rat peritoneal mast cells. Type of series: cell-based. In outline:
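Mast cells from peritoneal lavage of Sprague Dawley rats were incubated with compound at 10 μM for 15 min at 37 °C in HBSS + 25 mM HEPES pH 7.4. Supernatant histamine measured by EIA; response expressed as fold change versus pre-incubation levels.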

Series [2] concerns plasma PTH. In words: 1K1C rat model of acute renal insufficiency, plasma PTH after dosing. Format: in vivo. To be noted: 1K1C rats. An excerpt: A rat model of acute renal insufficiency (also referred to as the 1K1C model) was developed to simulate the pathology of SHPT associated with end stage renal disease. […] The development of this model allowed for the further characterization of described compounds in the context of a subject with renal dysfunction and elevated PTH. Typical baseline PTH levels in this model averaged ˜450 pg/mL.
The ensuing ischemia/reperfusion (I/R) damage to the remaining kidney results in significant necrosis and renal failure. Serum creatinine levels were elevated for over 24-48 hours following I/R insult (data not shown). […] By 48 hours post-I/R, plasma PTH levels were elevated to ˜450 pg/mL (˜5 fold increase) and in some instances reach as high as ˜1200 pg/mL. This reproducible increase in serum creatinine and PTH provided a robust model that mimics the physiology seen ESRD patients.
The protocol used in this study is as follows. Male Sprague Dawley rats were purchased from Charles River Laboratories (Hollister, Calif.; requested purchase weight 250-275 g). […] Animals were maintained in a temperature-controlled environment with a constant 12 hours light/12 hours dark cycle and free access to food and water at all times. All experimental procedures with animals were performed according to IACUC guidelines.
General anesthesia was induced and maintained by intraperitoneal (IP) injection of sodium pentobarbital (5.2%, 0.4 mL/rat). For animals that received 45 minutes of renal ischemia an additional IP injection of sodium pentobarbital (5.2%, 0.1 mL/rat) was given to maintain the anesthetic plane. Blood sampling for PTH measurements following administration of compounds in normal rats was done under continuous isoflurane anesthesia.
For model development studies, the left femoral vein was cannulated with a PE-10 tube for blood drawing. Both kidneys were exposed via a laparotomy. A right nephrectomy was performed after the right renal pedicle and ureter were ligated with double 2-0 silk sutures. After confirmation of non-bleeding in the right pedicle, the left renal artery was carefully dissected and clamped with a micro vascular clip to induce left renal global ischemia. Renal ischemia was confirmed by observation of a global white-grey color change (blanching). The abdominal incision was temporarily covered with gauze to help maintain the temperature of the abdominal organs. After 45 minutes, the designated period of ischemia, the clip was removed and left renal artery flow was considered restored upon observation of a global restoration of red color. The abdominal incision was closed in layers with 2-0 silk sutures. The animal was then recovered from anesthesia. Physiological parameters including body temperature (36-37.5° C.) and body weight were measured throughout the procedure. Body temperature was monitored and maintained using a heat pad rectal probe feedback system.
Approximately 48 hours after the 1K1C surgery (I/R injury), animals were dosed with various compounds to measure effects on plasma PTH and calcium. In most cases, test articles were administered by IV infusion (infusion time 5, 10 or 30 minutes) although in some studies compounds were administered by IV bolus or subcutaneous (SC) bolus injection. For drug administration and blood draws, animals were anesthetized with isoflurane.

The mark [3] stands for this setting: 3 mg/kg 30-minute IV infusion, FIG. 1.

As to `CC(=O)N[C@H](CS)C(=O)N[C@H](CCCNC(=N)N)C(=O)N[C@H](CCCNC(=N)N)C(=O)N[C@H](CCCNC(=N)N)C(=O)N[C@H](CCCNC(=N)N)C(=O)N[C@H](CCCNC(=N)N)C(=O)N[C@H](CCCNC(=N)N)C(N)=O` [SEQ ID NO: 6, Ac-crrrrrr-NH2], the “Histamine in vitro Fold change of non-treated at 10 uM” value in series [1] was 11.5 fold. Also, in series [2] (1 mg/kg 30-minute IV infusion), the “PTH reduction from baseline 16 hours after dosing” value is recorded as roughly 80% and the “initial fall of PTH levels from baseline” value was 80-90%. The “initial drop of PTH, level as % of baseline” value in series [2] (1 mg/kg SC bolus) is listed as roughly 40%. Besides, the “duration of reduced plasma PTH levels” value in series [2] (1 mg/kg, SC bolus or 30-minute IV infusion (both routes)) is listed as “over 24 hours”. Besides, the “reduced PTH levels from baseline twenty-four hours after dosing” value in series [2] (1 mg/kg, either route (SC bolus or IV infusion)) is listed as 40-60%. Further, in series [2] (setting [3]), the “PTH-lowering efficacy and duration of action” value is listed as “increased efficacy as well as the duration of action”; the “mean PTH reduction at the 24 hour time point” value was roughly 40%.

Turning to `CC(=O)N[C@H](CS)C(=O)N[C@H](C)C(=O)N[C@H](CCCNC(=N)N)C(=O)N[C@H](CCCNC(=N)N)C(=O)N[C@H](CCCNC(=N)N)C(=O)N[C@H](C)C(=O)N[C@H](CCCNC(=N)N)C(N)=O` [SEQ ID NO: 26, Ac-carrrar-NH2], the “Histamine in vitro Fold change of non-treated at 10 uM” value in series [1] was 1.4 fold. Further, the “PTH-lowering activity” value in series [2] (1 mg/kg 30-minute IV infusion, over 24 hours, FIG. 9) is recorded as “activity that is equivalent to Ac-crrrrrr-NH2”.

For the origin of these results see patent publication US10280198B2, “Therapeutic agents for reducing parathyroid hormone levels” (KAI PHARMACEUTICALS, INC., priority 2009, dated 2019).
